Measurements taken from PubChem BioAssay AID2060905 (Molecular Pharmacology Branch, DTP, NCI, 2025).
Where “and” joins values, the source holds several entries; their conditions need not be identical. Identical values can stand only once.

System: 282377-053-R-J1-PDC complex spheroid viability
Assay: Anticancer human tumor 282377-053-R-J1-PDC patient-derived colon adenocarcinoma cell line growth inhibition [RAS]
Conditions: for viability, T/C: stronger effect = lower value
From the text: RAS pathway inhibitors in Combinations in Complex Spheroids
A high-throughput screen of multi-cell type tumor spheroids was designed to identify active combinations of RAS pathway inhibitors and targeted small molecules. Complex spheroids include a stromal component modeled by human endothelial cells (HUVEC) and fibroblasts modeled by human mesenchymal stem cells (MSCs). The concentration ranges selected for each drug and investigational agent were based upon clinically achievable concentrations if the clinical Cmax of the agent was known.
Compounds. The drugs and investigational agents: abemaciclib (NSC768073), cobimetinib (NSC768068), divarasib (GDC6063, NSC841802), docetaxel (NSC628503), GDC-1971 (RLY-1971, NSC841576), gemcitabine (NSC613327), inavolisib (NSC800729), ipatasertib (NSC767898), KB-0742 (NSC834161), MRTX-1133 (NSC836407), osimertinib (NSC779217), RMC-4630 (NSC839698), RMC-6236 (NSC851965), RMC-6291 (NSC852671), Ro-3306 (NSC812927), sapanisertib (NSC764658), SN-38 (NSC673596), staurosporine (NSC755774), SY5609 (NSC837396), and tovorafenib (DAY101, NSC766906), were obtained from the National Cancer Institute (NCI) Developmental Therapeutics Program Chemical Repository. The FDA-approved anticancer drug set is available from the NCI Developmental Therapeutics Program. […] The stock solutions were prepared in dimethyl sulfoxide (DMSO, Sigma-Aldrich, St. Louis, MO, cat. D2650) at 800-fold the tested concentration and stored at -70 degrees C prior to their use. All drugs and investigational agents were tested over a range starting from a high concentration at or near the clinical Cmax and decreasing in half-log increments. If the clinical Cmax for an agent had not been determined, the highest concentration tested was 10 microM.
Cell Culture. All cells were maintained in an incubator at 37 degrees C and 5% CO2 with 95% humidity. The PDC lines were cultured according to standard operating procedures established by the NCI PDMR. All PDCs were thawed and cultured in Matrigel-coated flasks prepared with a working solution of 1X Ham's F-12 nutrient mix, without supplementation (Invitrogen, Waltham, MA, cat. 11765054), 100 U/mL penicillin-streptomycin (Invitrogen, cat. 15140122), and 2.5% Matrigel (Corning Inc., Corning, NY, cat. 354248) for the first three passages. The 362531-283-R-J2-PDC and 782815-120-R-J1-PDC lines were cultured in 6C/Colon 1B media, which includes advanced DMEM/F-12 (Thermo Fisher Scientific, cat. 12634028), 10 mM HEPES (Thermo Fisher Scientific, cat. 15630080), 1X GlutaMAX supplement (Thermo Fisher Scientific, cat. 35050061), 0.1 mg/mL primocin (InvivoGen, San Diego, CA, cat. ant-pm-2), 10% defined fetal bovine serum, heat inactivated (HyClone Laboratories Inc., Logan, UT, cat. SH30070.03HI), 50% L-WRN conditioned media (ATCC, cat. CRL-3276), 1.25 mM N-Acetyl-L-cysteine (Sigma-Aldrich, cat. A9165), 10 mM nicotinamide (Sigma-Aldrich, cat. N0636), 1X B-27 supplement (Thermo Fisher Scientific, cat. 17504044), 1X N-2 supplement (Thermo Fisher Scientific, cat. 17502048), 50 ng/mL human EGF (Thermo Fisher Scientific, cat. PHG0311), and 10 microM Y-27632 dihydrochloride (Tocris Bioscience, cat. 1254). The K12877-001-R-J1-PDC line was cultured in 6I media, which includes all 6C/Colon 1B media plus 10 ng/mL human FGF-10 (PeproTech, cat. 100-26), 1 ng/mL human FGF-2 (PeproTech, cat. 100-18B), 1 µM prostaglandin E2 (Tocris Bioscience, cat. 2296), […] hydrocortisone (Sigma-Aldrich, cat. H4001), and […] bovine insulin (Sigma-Aldrich, cat. I6634). The K86415-001-R-J1-PDC line was cultured in 6D media, which includes all 6C/Colon 1B media components minus the L-WRN conditioned media. The 485176-168-R4-J1-PDC was cultured in PANC media, which includes all 6C/Colon 1B media plus 100 ng/mL human FGF-10 (PeproTech, cat. 100-26), 500 nM SB-431542 (Selleckchem, cat. S1067), and 10 nM gastrin (Tocris Bioscience, cat. 3006). […]

[1] = compound alone, run of 06/10/2024
[2] = compound alone, run of 05/20/2024
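Further: spheroids exposed to agents for seven days before readout.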
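Wherever viability, T/C is given: luminescence viability as percent of DMSO vehicle control wells.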

SMILES | viability, T/C (compound 0.1 µM) | viability, T/C (compound 0.316 µM) | viability, T/C (compound 3.16 µM) | viability, T/C (compound 10 µM) | viability, T/C (compound 0.0316 µM) | IC50 (curve of compound) | viability, T/C (compound 1 µM) | other results
C#Cc1c(F)ccc2cc(O)cc(-c3ncc4c(N5CC6CCC(C5)N6)nc(OCC56CCCN5CC(F)C6)nc4c3F)c12 (stereo not given) | 104% [middle of 8 runs] | 102% [middle of 8 runs] | 111% [middle of 8 runs] | 104% [middle of 8 runs] |  |  |  | IC50 [1]: > 10 µM
C=CC(=O)N1CCN(c2nc(OCC3CCCN3C)nc3c(F)c(-c4nc(N)cc(C)c4C(F)(F)F)c(Cl)cc23)C(C)C1 (stereo not given) |  | 100% [middle of 12 runs] |  |  | 105% [middle of 12 runs] | > 1 µM |  | IC50 [1]: > 1 µM
C=CC(=O)Nc1cc(Nc2nccc(-c3cn(C)c4ccccc34)n2)c(OC)cc1N(C)CCN(C)C |  |  |  |  | 91.6% [middle of 4 runs] | > 1 µM | 99.8% [middle of 4 runs] | viability, T/C (compound 0.01 µM): 98.4% [middle of 4 runs]
CC(=O)OC12COC1CC(O)C1(C)C(=O)C(O)C3=C(C)C(OC(=O)C(O)C(NC(=O)OC(C)(C)C)c4ccccc4)CC(O)(C(OC(=O)c4ccccc4)C21)C3(C)C (stereo not given) | 33.6% [middle of 4 runs] | 37.9% [middle of 4 runs] |  |  |  | < 0.0316 µM |  | 
CC(C)NCC(C(=O)N1CCN(c2ncnc3c2C(C)CC3O)CC1)c1ccc(Cl)cc1 (stereo not given) |  |  | 90.4% [middle of 4 runs] | 80.6% [middle of 4 runs] | 95.3% [middle of 4 runs] | > 10 µM | 94.8% [middle of 4 runs] | 
CC(C)n1nc(-c2ccc3oc(N)nc3c2)c2c(N)ncnc21 | 51.8% [middle of 4 runs] |  |  |  | 74.9% [middle of 4 runs] | > 0.1 µM |  | viability, T/C (compound 0.000316 µM): 91.6% [middle of 4 runs]; viability, T/C (compound 0.001 µM): 112% and 102% (2×) and 89.9%; viability, T/C (compound 0.00316 µM): 90.7% [middle of 4 runs]; viability, T/C (compound 0.01 µM): 87.2% [middle of 4 runs]
CC(Nc1ccc2c(c1)OCCn1cc(N3C(=O)OCC3C(F)F)nc1-2)C(N)=O (stereo not given) |  | 85.7% [middle of 4 runs] | 93.8% [middle of 4 runs] | 84.6% [middle of 4 runs] | 94% [middle of 4 runs] | > 10 µM | 87.3% [middle of 4 runs] | 
CC1(C)CCC(Nc2ncc(C(F)(F)F)c(-c3c[nH]c4c(P(C)(C)=O)c(C#N)ccc34)n2)CN1 (stereo not given) |  |  |  |  |  | > 0.3 µM |  | viability, T/C (compound 0.003 µM): 102% [middle of 4 runs]; viability, T/C (compound 0.0949 µM): 74.2% [middle of 4 runs]; viability, T/C (compound 0.3 µM): 75.7% [middle of 4 runs]
CC1(O)CCCC1n1c(=O)c(C(F)F)cc2cnc(NC3CCN(S(C)(=O)=O)CC3)nc21 (stereo not given) | 128% [middle of 4 runs] |  |  | 5.45% [middle of 4 runs] |  | 6.64 µM [middle of 4 runs] | 112% (2×) and 190% and 160% | 
CCC(CC)c1cc(NC2CCC(N)C2)n2nccc2n1 (stereo not given) |  |  | 10.4% [middle of 4 runs] | 3% [middle of 4 runs] |  | 1.96 µM [middle of 4 runs] | 112% [middle of 4 runs] | 
CCN1CCN(Cc2ccc(Nc3ncc(F)c(-c4cc(F)c5nc(C)n(C(C)C)c5c4)n3)nc2)CC1 |  | 121% and 132% (2×) and 151% |  |  |  | > 1 µM | 178% [middle of 4 runs] | viability, T/C (compound 0.00316 µM): 105% [middle of 4 runs]; viability, T/C (compound 0.01 µM): 107% [middle of 4 runs]
CCc1c2c(nc3ccc(O)cc13)-c1cc3c(c(=O)n1C2)COC(=O)[C@]3(O)CC |  |  |  |  |  | > 0.3 µM |  | viability, T/C (compound 0.000949 µM): 106% [middle of 4 runs]; viability, T/C (compound 0.003 µM): 107% (2×) and 119% and 122%
CCn1c(-c2cc(N3CCN(C)CC3)cnc2C(C)OC)c2c3cc(ccc31)-c1csc(n1)CC(NC(=O)C1CC1C)C(=O)N1CCCC(N1)C(=O)OCC(C)(C)C2 (stereo not given) |  |  |  |  |  |  |  | viability, T/C (compound 0.003 µM): 95.7% [middle of 8 runs]; viability, T/C (compound 0.00949 µM): 98.4% [middle of 8 runs]; viability, T/C (compound 0.0949 µM): 105% [middle of 8 runs]; IC50 [2]: > 0.3 µM
CCn1c(-c2cccnc2C(C)OC)c2c3cc(ccc31)N1CCOC(CC(NC(=O)C(C(C)C)N(C)C(=O)C3(F)CCN(C(=O)C#CC(C)(C)N(C)C)CC3)C(=O)N3CCCC(N3)C(=O)OCC(C)(C)C2)C1 (stereo not given) |  |  |  |  |  |  |  | viability, T/C (compound 0.000949 µM): 98.8% [middle of 8 runs]; viability, T/C (compound 0.00949 µM): 104% [middle of 8 runs]; viability, T/C (compound 0.03 µM): 102% [middle of 8 runs]; viability, T/C (compound 0.0949 µM): 102% [middle of 8 runs]; viability, T/C (compound 0.3 µM): 102% [middle of 8 runs]; IC50 [2]: > 0.3 µM
C[C@@H](NC(=O)c1ncnc(N)c1Cl)c1ncc(C(=O)Nc2cc(C(F)(F)F)c(Cl)cn2)s1 | 94.9% [middle of 4 runs] | 92.8% [middle of 4 runs] | 81.1% [middle of 4 runs] | 72.1% [middle of 4 runs] | 92.9% [middle of 4 runs] | > 10 µM | 94.9% [middle of 4 runs] | 
Cc1nc(N2CCC3(CC2)COC(C)C3N)c(CO)nc1Sc1ccnc(N)c1Cl (stereo not given) |  | 94.9% [middle of 4 runs] |  |  | 93.8% and 100% (2×) and 88.5% | > 10 µM | 102% [middle of 4 runs] | 
NC1c2ccccc2OC12CCN(c1cnc3c(N4CCCc5ncccc54)n[nH]c3n1)CC2 (stereo not given) | 98.2% [middle of 4 runs] | 101% [middle of 4 runs] | 97.5% [middle of 4 runs] | 89.8% [middle of 4 runs] | 98.1% [middle of 4 runs] | > 10 µM | 109% (2×) and 96.3% and 103% | 
Nc1ccn(C2OC(CO)C(O)C2(F)F)c(=O)n1 (stereo not given) |  |  |  |  |  | > 1 µM and 0.221 µM and 0.274 µM |  | viability, T/C (compound 0.00316 µM): 94.8% [middle of 4 runs]; viability, T/C (compound 0.01 µM): 101% [middle of 4 runs]
O=C(c1ccc(F)c(F)c1Nc1ccc(I)cc1F)N1CC(O)([C@@H]2CCCCN2)C1 | 53.5% [middle of 4 runs] | 28.1% [middle of 4 runs] |  |  |  | 79.8 nM [middle of 4 runs] | 20.8% [middle of 4 runs] | viability, T/C (compound 0.00316 µM): 75.2% [middle of 4 runs]
